Source: US11673910B2, “Macrolides with modified desosamine sugars and uses thereof” (Zikani Therapeutics, Inc., priority 2017, dated 2023)
≈ marks a conversion by molar mass, not a printed value.

Legend:
Format in all cases: cell-based
[1] = test system: P. aeruginosa strain MP-3; test: Broth dilution MIC determination (CLSI) against P. aeruginosa strain MP-3; settings: Pseudomonas aeruginosa, MP3
Description: (§1) Minimum inhibitory concentrations (MICs) for macrolides described herein were determined for E. coli strain MP-4, K. pneumoniae strain MP-548, P. aeruginosa strain MP-3, A. baumannii strain MP-15, and S. aureus strain MP-12 using similar test procedures as published in US Pat. Pub. No. 2017/0305953. MIC data is represented as “+++” for values less than or equal to 4 mg/L, “++” for values of greater than or equal to 8 mg/L and less than 32 mg/L, and “+” for values of 32 mg/L or greater. ND indicates no data for a particular compound. CLSI standard procedures for broth dilution MIC determination were used.

E. coli strain MP-4 = test: Broth dilution MIC determination (CLSI) against E. coli strain MP-4; settings: Escherichia coli, MP4
Description: as §1

[2] = test system: K. pneumoniae strain MP-548; test: Broth dilution MIC determination (CLSI) against K. pneumoniae strain MP-548; settings: Klebsiella pneumoniae, MP548
Description: as §1

[3] = test system: A. baumannii strain MP-15; test: Broth dilution MIC determination (CLSI) against A. baumannii strain MP-15; settings: Acinetobacter baumannii, MP15
Description: as §1

S. aureus strain MP-12 = test: Broth dilution MIC determination (CLSI) against S. aureus strain MP-12; settings: for MIC: Staphylococcus aureus, MP12, strain MP-12
Description: as §1

SMILES | MIC [1] [µg/mL] | MIC (E. coli strain MP-4) [µg/mL] | MIC [2] [µg/mL] | MIC [3] [µg/mL] | MIC (S. aureus strain MP-12) [µg/mL] | MIC against S. aureus (MP-12) (S. aureus strain MP-12; strain MP-12)
C=CC1CO[C@@]2(C)C[C@@H](C)CN[C@H](C)[C@H]3NC(=O)O[C@]3(C)[C@@H](CC)OC(=O)[C@@]1(C)C(=O)[C@H](C)[C@H]2OC1OC(C)CC(N(C)C)C1O (stereo partly shown) [Compound 224] | ≥ 32 | ≥ 32 | ≥ 32 | ≥ 32 | ≥ 32 | 
CC[C@H]1OC(=O)C(C)C(=O)[C@H](C)[C@@H](O[C@@H]2O[C@H](CCC(C)C)CC(N(C)C)[C@H]2O)[C@](C)(OC)C[C@@H](C)CN[C@H](C)[C@H]2NC(=O)O[C@@]21C (stereo partly shown) [Compound 183, 3-Descladinosyl-3-oxo-6-O-methyl-N9a-desmethyl-11,12-dideoxy-12,11-(oxycarbonylimino)-6′-isobutyl Azithromycin] | ≥ 32 | 8 to 32 (≈ 11.9 to 47.8 µM) | ≥ 32 | 8 to 32 (≈ 11.9 to 47.8 µM) | 8 to 32 (≈ 11.9 to 47.8 µM) | 
CC[C@H]1OC(=O)C(C)C(=O)[C@H](C)[C@@H](O[C@@H]2OC(CNCc3ccc(F)cc3)CC(N(C)C)C2O)[C@](C)(OC)C[C@@H](C)CN[C@H](C)[C@H]2NC(=O)O[C@@]21C (stereo partly shown) [Compound 18] | ≥ 32 | ≤ 4 | 8 to 32 (≈ 10.9 to 43.4 µM) | ≥ 32 | ≥ 32 | 
CC[C@H]1OC(=O)C(C)C(=O)[C@H](C)[C@@H](OC2OC(C(=O)N(C)C)CC(N(C)C)C2O)[C@](C)(OC)C[C@@H](C)CN[C@H](C)[C@H]2NC(=O)O[C@@]21C (stereo partly shown) [Compound 167, 3-Descladinosyl-3-oxo-6-O-methyl-N9a-desmethyl-11,12-dideoxy-12,11-(oxycarbonylimino)-5′-desmethyl-5′-(N,N-dimethylcarboxamido) Azithromycin] | ≥ 32 | ≥ 32 | ≥ 32 | ≥ 32 | ≥ 32 | 
CC[C@H]1OC(=O)C(C)C(=O)[C@H](C)[C@@H](O[C@@H]2OC(CNCc3ccc(C(F)(F)F)cc3)CC(N(C)C)C2O)[C@](C)(OC)C[C@@H](C)CN[C@H](C)[C@H]2NC(=O)O[C@@]21C (stereo partly shown) [Compound 35] | ≥ 32 | ≤ 4 | ≥ 32 | 8 to 32 (≈ 10.2 to 40.7 µM) | ≥ 32 | 
CC[C@H]1OC(=O)C(C)C(=O)[C@H](C)[C@@H](OC2OC(CN(C)C34CC(C3)C4)CC(N(C)C)C2O)[C@](C)(OC)C[C@@H](C)CN[C@H](C)[C@H]2NC(=O)O[C@@]21C (stereo partly shown) [Compound 152, 3-Descladinosyl-3-oxo-6-O-methyl-N9a-desmethyl-11,12-dideoxy-12,11-(oxycarbonylimino)-6′-bicyclo[1.1.1]pentanylmethylamino Azithromycin] | ≥ 32 | ≥ 32 | ≥ 32 | 8 to 32 (≈ 11.3 to 45.1 µM) | 8 to 32 (≈ 11.3 to 45.1 µM) | 
CC[C@H]1OC(=O)[C@@]2(C)CCOC(C)(C[C@@H](C)CN[C@H](C)[C@H]3NC(=O)O[C@@]31C)[C@H](O[C@@H]1OC(C)CC(N(C)C)C1O)[C@@H](C)C2=O (stereo partly shown) [Compound 219] | ≥ 32 | ≤ 4 | ≤ 4 | 8 to 32 (≈ 12.8 to 51.1 µM) | ≤ 4 | 
CC[C@H]1OC(=O)C(C)C(=O)[C@H](C)[C@@H](OC2OC(CN[C@@H]3C[C@H]3C)CC(N(C)C)C2O)[C@](C)(OC)C[C@@H](C)CN[C@H](C)[C@H]2NC(=O)O[C@@]21C (stereo partly shown) [Compound 134, 3-Descladinosyl-3-oxo-6-O-methyl-N9a-desmethyl-11,12-dideoxy-12,11-(oxycarbonylimino)-6′-((1″R,2″R)-2″-methylcyclopropyl)amino Azithromycin] | ≥ 32 | ≤ 4 | ≤ 4 | 8 to 32 (≈ 11.7 to 46.9 µM) | ≥ 32 | 
C=CC1CC(N(C)C)C(O)[C@H](O[C@@H]2[C@@H](C)C(=O)[C@]3(C)CCOC2(C)C[C@@H](C)CN[C@H](C)[C@H]2NC(=O)O[C@]2(C)[C@@H](CC)OC3=O)O1 (stereo partly shown) [Compound 211] | ≥ 32 | ≤ 4 | ≤ 4 | ≤ 4 | ≤ 4 | 
CC[C@H]1OC(=O)[C@]2(C)CCOC(C)(C[C@@H](C)CN[C@H](C)[C@H]3NC(=O)O[C@@]31C)[C@H](O[C@@H]1O[C@H](CNC34CC(C3)C4)C[C@H](N(C)C)[C@H]1O)[C@@H](C)C2=O [Compound 212] | ≥ 32 | ≤ 4 | 8 to 32 (≈ 11.3 to 45.3 µM) | 8 to 32 (≈ 11.3 to 45.3 µM) |  | +++ (values less than or equal to 4 mg/L)
CC[C@H]1OC(=O)[C@@](C)(F)C(=O)[C@H](C)[C@@H](O[C@@H]2OC(CNCc3cccnc3)CC(N(C)C)C2O)[C@](C)(OC)C[C@@H](C)C(=O)[C@H](C)[C@H]2NC(=O)O[C@@]21C (stereo partly shown) [Compound 101] | ≥ 32 | ≥ 32 | ≥ 32 | ≥ 32 | ≤ 4 | 
CC[C@H]1OC(=O)[C@@](C)(F)C(=O)[C@H](C)[C@@H](O[C@@H]2OC(CNCc3ccn(C)n3)CC(N(C)C)C2O)[C@](C)(OC)C[C@@H](C)C(=O)[C@H](C)[C@H]2NC(=O)O[C@@]21C (stereo partly shown) [Compound 102] | ≥ 32 | 8 to 32 (≈ 10.8 to 43.3 µM) | ≥ 32 | ≥ 32 | ≤ 4 | 

The next lines start with results.

MIC [1] [µg/mL] | MIC (E. coli strain MP-4) [µg/mL] | MIC [2] [µg/mL] | MIC [3] [µg/mL] | MIC (S. aureus strain MP-12) [µg/mL] | SMILES | MIC against S. aureus (MP-12) (S. aureus strain MP-12; strain MP-12)
≥ 32 | ≤ 4 | ≤ 4 | ≥ 32 | 8 to 32 (≈ 12 to 47.8 µM) | CC[C@H]1OC(=O)C(C)C(=O)[C@H](C)[C@@H](OC2OC(CNC3CC3)CC(N(C)C)C2O)[C@](C)(OC)C[C@@H](C)CN[C@H](C)[C@H]2NC(=O)O[C@@]21C (stereo partly shown) [Compound 118, 3-Descladinosyl-3-oxo-6-O-methyl-N9a-desmethyl-11,12-dideoxy-12,11-(oxycarbonylimino)-6′-cyclopropylamino Azithromycin] | 
≥ 32 | ≤ 4 | ≥ 32 | ≥ 32 | ≥ 32 | CC[C@H]1OC(=O)C(C)C(=O)[C@H](C)[C@@H](O[C@@H]2OC(CN[C@H](C)c3ccc(F)cc3)CC(N(C)C)C2O)[C@](C)(OC)C[C@@H](C)CN[C@H](C)[C@H]2NC(=O)O[C@@]21C (stereo partly shown) [Compound 33] | 
≥ 32 | 8 to 32 (≈ 11.4 to 45.7 µM) | ≥ 32 | ≥ 32 | ≥ 32 | CC[C@H]1OC(=O)C(C)C(=O)[C@H](C)[C@@H](OC2OC(CNCC(C)(C)O)CC(N(C)C)C2O)[C@](C)(OC)C[C@@H](C)CN[C@H](C)[C@H]2NC(=O)O[C@@]21C (stereo partly shown) [Compound 113, 3-Descladinosyl-3-oxo-6-O-methyl-N9a-desmethyl-11,12-dideoxy-12,11-(oxycarbonylimino)-6′-(2-methylpropan-2-ol-amino) Azithromycin] | 
≥ 32 | ≤ 4 | ≥ 32 | ≥ 32 | ≥ 32 | CC[C@H]1OC(=O)C(C)C(=O)[C@H](C)[C@@H](O[C@@H]2OC(CNCc3cccc(-c4cncnc4)c3)CC(N(C)C)C2O)[C@](C)(OC)C[C@@H](C)CN[C@H](C)[C@H]2NC(=O)O[C@@]21C (stereo partly shown) [Compound 20] | 
≥ 32 | ≤ 4 | ≥ 32 | ≥ 32 | ≥ 32 | CC[C@H]1OC(=O)C(C)C(=O)[C@H](C)[C@@H](O[C@@H]2OC(CNCc3ccc(OC)cc3)CC(N(C)C)C2O)[C@](C)(OC)C[C@@H](C)CN[C@H](C)[C@H]2NC(=O)O[C@@]21C (stereo partly shown) [Compound 42] | 
≥ 32 | ≤ 4 | ≥ 32 | ≥ 32 | ≥ 32 | CC[C@H]1OC(=O)C(C)C(=O)[C@H](C)[C@@H](O[C@@H]2OC(CNCc3ccccc3)CC(N(C)C)C2O)[C@](C)(OC)C[C@@H](C)CN[C@H](C)[C@H]2NC(=O)O[C@@]21C (stereo partly shown) [Compound 28] | 
≥ 32 | 8 to 32 (≈ 10.4 to 41.6 µM) | ≥ 32 | ≥ 32 | ≥ 32 | CCCCCCCCCCNCC1CC(N(C)C)C(O)[C@H](O[C@@H]2[C@@H](C)C(=O)C(C)C(=O)O[C@H](CC)[C@@]3(C)OC(=O)N[C@@H]3[C@@H](C)NC[C@H](C)C[C@@]2(C)OC)O1 (stereo partly shown) [Compound 55] | 
≥ 32 | 8 to 32 (≈ 12.4 to 49.8 µM) | ≥ 32 | ≥ 32 | ≥ 32 | CC[C@H]1OC(=O)C(C)C(=O)[C@H](C)[C@@H](OC2OC(CNC)CC(N(C)C)C2O)[C@](C)(OC)C[C@@H](C)CN[C@H](C)[C@H]2NC(=O)O[C@@]21C (stereo partly shown) [Compound 106, 3-Descladinosyl-3-oxo-6-O-methyl-N9a-desmethyl-11,12-dideoxy-12,11-(oxycarbonylimino)-6′-methylamino Azithromycin] | 
≥ 32 | ≤ 4 | ≥ 32 | ≥ 32 | ≥ 32 | CO[C@]1(C)C[C@@H](C)CN[C@H](C)[C@H]2NC(=O)O[C@]2(C)[C@@H](C)OC(=O)C(C)C(=O)[C@H](C)[C@H]1OC1OC(CN2CCCCC2)CC(N(C)C)C1O (stereo partly shown) [Compound 149, 3-Descladinosyl-3-oxo-6-O-methyl-N9a-desmethyl-11,12-dideoxy-12,11-(oxycarbonylimino)-6′-piperidinyl-13-methyl Azithromycin] | 
≥ 32 | ≥ 32 | ≥ 32 | ≥ 32 | ≥ 32 | CC[C@H]1OC(=O)C(C)C(=O)[C@H](C)[C@@H](OC2OC(CN(C)C(C)=O)CC(N(C)C)C2O)[C@](C)(OC)C[C@@H](C)CN[C@H](C)[C@H]2NC(=O)O[C@@]21C (stereo partly shown) [Compound 169, 3-Descladinosyl-3-oxo-6-O-methyl-N9a-desmethyl-11,12-dideoxy-12,11-(oxycarbonylimino)-6′-(N-methyl-N-acetylamino) Azithromycin] | 
≥ 32 | ≥ 32 | ≥ 32 | ≥ 32 | ≤ 4 | CC[C@H]1OC(=O)[C@@](C)(F)C(=O)[C@H](C)[C@@H](O[C@@H]2OC(CNCc3ccc(-c4cncnc4)cc3)CC(N(C)C)C2O)[C@](C)(OC)C[C@@H](C)C(=O)[C@H](C)[C@H]2NC(=O)O[C@@]21C (stereo partly shown) [Compound 92] | 
